Measurements as given in patent US20020169111A1, “Reversal of multidrug resistance in human colon carcinoma cells” (American Cyanamid Comany, priority 1998, published 2002).

System: S1-M1-3.2 cells
Settings: for Toxicity (>20%): compound alone, concentration that causes greater than 20% cell death of S1-M1-3.2 cells; for IC50: read-out: IC50 (μM), resensitizing S1-M1-3.2 cells to mitoxantrone, with 3.2 μM mitoxantrone, 50% cancer cell death
Protocol: One of the first reported molecules with reversing activity was verapamil, a calcium channel blocker. […] Cells were plated into 96-well dishes (100 μl/well) in growth medium supplemented with 5% FBS. […] Reversal agents were tested from 0.1-80 μM (triplicate points per dose). In parallel wells, cells were grown in the presence of the reversal agent alone.
The Difference Score is the difference in the percentage of cells surviving when the drug was given alone minus the percentage of cells surviving when the drug was given along with the antitumor agent.
Cell survival was estimated using the Sulforhodamine (SRB) assay.

SMILES	Toxicity (>20%)	IC50
NCCC[C@@H]1c2[nH]c3ccccc3c2C[C@H]2C(=O)N3CCC[C@H]3C(=O)N12 [Example 29a, (5aS,12R,14aS)-12-(3-aminopropyl)-1,2,3,5a,6,11,12,14a-octahydro-5H,14H-pyrrolo[1″,2″:4′,5′]pyrazino[2′,1′:6,1]pyrido[3,4-b]indole-5,14-dione]	>80 µM	20 µM
NCCC[C@H]1c2[nH]c3ccccc3c2C[C@H]2C(=O)N3CCC[C@H]3C(=O)N21 [Example 29b, (5aS,12S,14aS)-12-(3-aminopropyl)-1,2,3,5a,6,11,12,14a-octahydro-5H,14H-pyrrolo[1″,2″:4′,5′]pyrazino[2′,1′:6,1]pyrido[3,4-b]indole-5,14-dione]	>80 µM	> 80 µM
CC(=O)NCCC[C@H]1c2[nH]c3ccccc3c2C[C@H]2C(=O)N3CCC[C@H]3C(=O)N21 [Example 30, N-{3-[(5aS,12S,14aS)-5,14-dioxo-2,3,5a,6,11,12,14,14a-octahydro-1H,5H-pyrrolo[1″,2″:4′,5′]pyrazino[2′,1′:6,1]pyrido[3,4-b]indol-12-yl]propyl}Acetamide]	>80 µM	> 80 µM
CCCC(=O)NCCC[C@H]1c2[nH]c3ccccc3c2C[C@H]2C(=O)N3CCC[C@H]3C(=O)N21 [Example 31, N-{3-[(5aS,12S,14aS)-5,14-dioxo-2,3,5a,6,11,12,14,14a-octahydro-1H,5H-pyrrolo[1″,2″:4′,5′]pyrazino[2′,1′:6,1]pyrido[3,4-b]indol-12-yl]propyl}Butanamide]	>80 µM	65 µM
O=C(O)CCC(=O)NCCC[C@H]1c2[nH]c3ccccc3c2C[C@H]2C(=O)N3CCC[C@H]3C(=O)N21 [Example 32, 4-({3-[(5aS,12S,14aS)-5,14-dioxo-2,3,5a,6,11,12,14,14a-octahydro-1H,5H-pyrrolo[1″,2″:4′,5′]pyrazino[2′,1′:6,1]pyrido[3,4-b]indol-12-yl]propyl}amino)-4-oxobutanoic acid]	>80 µM	> 80 µM
O=C(NCCC[C@H]1c2[nH]c3ccccc3c2C[C@H]2C(=O)N3CCC[C@H]3C(=O)N21)[C@@H]1CCCN1 [Example 33, (2S)-N-{3-[(5aS,12S,14aS)-5,14-dioxo-2,3,5a,6,11,12,14,14a-octahydro-1H,5H-pyrrolo[1″,2″:4′,5′]pyrazino[2′,1′:6,1]pyrido[3,4-b]indol-12-yl]propyl}pyrrolidine-2-carboxamide]	>80 µM	> 80 µM
COc1ccc2c3c(n(CC=C(C)C)c2c1)[C@H](C=C(C)C)N1C(=O)[C@@H]2CCCN2C(=O)[C@@H]1C3 [Example 34]	2.0 µM	1 µM
